Measurements reported in ChEMBL document CHEMBL1121526, “Use of acetylacetone to prepare a prodrug of cycloserine” (1980).

How the values were obtained:
Escherichia coli = assay: antibacterial activity was reported as zones of inhibition in the disk diffusion assay using Escherichia coli; assay type: functional
Mus musculus [1] = organism: Mus musculus; assay: The compound was tested for urinary recovery was assayed for its content of free cycloserine by employing the bioassay in mouse; assay type: functional, Urine
Mus musculus [2] = organism: Mus musculus; assay: The compound was tested for urinary recovery was assayed for its content for total cycloserine content employing the chemical assay in mouse; assay type: functional, Urine
Staphylococcus aureus = assay: antibacterial activity was reported as zones of inhibition in the disk diffusion assay using staphylococcus aureus; assay type: functional

SMILES	Diameter (Escherichia coli)	Urinary recovery of free cycloserine (Mus musculus [1])	Urinary recovery of total cycloserine (Mus musculus [2])	Diameter (Staphylococcus aureus)
CC1(C)CC(O)=C/C(=N/C2CONC2=O)C1 (stereo not given)	< 6 mm	<1%	55%	< 6 mm
CCOC(=O)NC1CONC1=O (stereo not given)	< 6 mm	<1%	33%	< 6 mm
CNC(=O)NC1CON(C(=O)NC)C1=O (stereo not given)	< 6 mm	<1%	<1%	< 6 mm
CNC(=O)NC1CONC1=O (stereo not given)	22 mm	<1%	16%	25 mm
O=C(NC1CONC1=O)C1CCCCC1 (stereo not given)	< 6 mm	1%	53%	< 6 mm
O=C(NC(=O)C(Cl)(Cl)Cl)NC1CONC1=O (stereo not given)	14 mm	<1%	55%	< 6 mm
O=C(CCl)NC1CON(C(=O)CCl)C1=O (stereo not given)	< 6 mm	1.1%	43%	< 6 mm
N[C@@H]1CONC1=O [CYCLOSERINE]	39 mm	64%	45%	36 mm
C/C(O)=C\C(C)=N\C1CONC1=O (stereo not given)	39 mm	93%	64%	36 mm
O=C(CCl)NC1CONC1=O (stereo not given)	< 6 mm	1%	70%	< 6 mm
